Legend:
[1] = system: P. aeruginosa ATCC27853; assay: Mouse IN neutropenic lung burden model, Lynovex/Lactose study; type: in vivo, Pseudomonas aeruginosa; details: CD1 mice, 24 h post-infection
Method: Animals were immunosuppressed/pre-conditioned with either 200 mg/kg or 150 mg/kg cyclophosphamide. Lynovex, chemical name cysteamine, and vehicle were either prepared either as Lynovex and lactose vehicle, or Lynovex and mannitol-based vehicle (both provided by Upperton (Upperton product)). These were prepared for treatment and vehicle-control alone respectively, and in combination. Tobramycin was prepared as an inhalation formulation in lactose. All treatments were administered using a Penn Century device. Phosphate buffered saline (PBS) and Pseudomonas selective agar were required for bacterial tissue burden.
(§1) Male CD1 mice (n =6 for treatment groups, plus five in pre-treatment group, totalling 35 mice) were used in this study. On day −4, the mice were immunosuppressed/pre-conditioned with 200 mg/kg cyclophosphamide intraperitoneally; and with 150 mg/kg cyclophosphamide intraperitoneally on day-1. An infection was established with P. aeruginosa ATCC27853, with an inoculum of 5×10^6 cfu/ml, administered intranasally in a volume of 40 μl following anaesthetisation with a ketamine/xylazine anaesthetic cocktail for 15 minutes, for the Lynovex prepared in lactose study, and an inoculum of 4×10^6 for the Upperton Lynovex product.
Treatment. All treatments were administered intratracheally using a Penn Century device.
Lynovex (cysteamine) was administered at 1.5 mg alone, and in combination with lactose at the following concentrations: Lynovex 0.75 mg+2.25 mg lactose powder, Lynovex 1.5 mg+1.5 mg lactose powder, Lynovex 2.25 mg+0.75 mg, along with a vehicle only control of 3 mg lactose. In addition, Tobramycin at 188 μg/dose was administered, as an inhaled formulation which was mixed with lactose to aid measurement. The treatments were administered approximately 5 minutes after infection.
The lung tissue burden of each animal, at the clinical end point of 24 h post-infection, was determined. The lungs were homogenised in 2 ml PBS, serially diluted in PBS and plated onto Pseudomonas selective agar before quantification after 24-48 h at 37° C.

[2] = Mouse weights recorded before and after infection; type: in vivo; details: infected CD1 mice, Upperton product study (FIG. 6)
Method: as §1
In a different study, Lynovex was administered at the following doses: 3 mg 5% Lynovex and 3 mg 10% Lynovex. Lynovex in combination with Tobramycin as follows: 3 mg 5% Lynovex+Tobramycin 0.188 mg in 1.5 mg vehicle, 3 mg 10% Lynovex+Tobramycin 0.188 mg in 1.5 mg Vehicle (mannitol-based, provided by Upperton) and a Tobramycin only control (0.188 mg/dose in lactose vehicle). The treatments were administered once approximately 10 minutes after infection.
Additionally, mouse weights were recorded before and after infection. Mice treated with vehicle, Lynovex monotherapy or Tobramycin monotherapy lost weight following infection. […]

| SMILES | lung burden compared to vehicle ([1]; 1.5 mg intratracheal, P=0.0072) | lung burden compared to vehicle ([1]; 2.25 mg intratracheal, P=0.0349) | mouse weight following infection [2] | lung burden compared with vehicle-treated mice ([1]; 0.188 mg inhalation formulation, intratracheal, P=0.0097 Kruskal Wallis test) |
| --- | --- | --- | --- | --- |
| NCCS [Lynovex, cysteamine] | reduced the lung burden | reduced the lung burden | – | – |
| NC[C@H]1O[C@H](O[C@H]2[C@H](O)[C@@H](O[C@H]3O[C@H](CO)[C@@H](O)[C@H](N)[C@H]3O)[C@H](N)C[C@@H]2N)[C@H](N)C[C@@H]1O [Tobramycin] | – | – | lost weight | statistically significant reduction in lung burden |

— US11369568B2, “Microparticles comprising a sulphur-containing compound” (NOVABIOTICS LIMITED, priority 2016, dated 2022)
